Assay results taken from ChEMBL document CHEMBL3885881, “DrugMatrix”.

Species: Rattus norvegicus
Experiment: DrugMatrix - Regimen: Daily Repeat
Assay type: toxicity, organism-based, Sprague-Dawley
Parameters: regimen Daily Repeat, gender Male, age 6-8 weeks
Conditions: in vivo, po, route oral GAVAGE, vehicle .5 % CMC; for ABSOLUTE BASOPHIL / ABSOLUTE EOSINOPHIL / ABSOLUTE LYMPHOCYTE / ABSOLUTE MONOCYTE / ABSOLUTE SEGMENTED NEUTROPHIL / BASOPHIL / EOSINOPHIL / HEMATOCRIT / LEUKOCYTE COUNT / LYMPHOCYTE / MEAN CORPUSCULAR HEMOGLOBIN / MEAN CORPUSCULAR HEMOGLOBIN CONCENTRATION / MEAN CORPUSCULAR VOLUME / MONOCYTE / NEUTROPHIL / NUCLEATED RED BLOOD CELLS / PLATELET COUNT: tissue Blood; for ALANINE AMINOTRANSFERASE / ALBUMIN / ALKALINE PHOSPHATASE / ASPARTATE AMINOTRANSFERASE / BLOOD UREA NITROGEN / CARBON DIOXIDE / CHLORIDE / CHOLESTEROL / CREATININE / GLUCOSE / LACTATE DEHYDROGENASE / LIPASE / PHOSPHORUS / TOTAL BILIRUBIN / TOTAL PROTEIN / URIC ACID / SODIUM: tissue Plasma
[1] = 0 mg/kg, 72 h, dose level Control, time 3 day
[2] = 0 mg/kg, 120 h, dose level Control, time 5 day
[3] = 23 mg/kg, 72 h, dose level High, time 3 day

How did the “ABSOLUTE BASOPHIL” value [1] turn out when Cc1cc2c(s1)Nc1ccccc1N=C2N1CCN(C)CC1 [OLANZAPINE] was run?
The value was 0 CELLS/uL.

And the “ABSOLUTE EOSINOPHIL” value [1]?
The value was 47.67 CELLS/uL.

What about the “ABSOLUTE LYMPHOCYTE” value [1] of the same compound?
The value was 15937.67 CELLS/uL.

What about the “ABSOLUTE MONOCYTE” value [1] of the same compound?
Its value is 138.33 CELLS/uL.

And the “ABSOLUTE SEGMENTED NEUTROPHIL” value [1]?
Its value is 1443 CELLS/uL.

What about the BASOPHIL [1] of the same compound?
The BASOPHIL was 0%.

What about the EOSINOPHIL [1] of the same compound?
Its EOSINOPHIL is 0.33%.

What about the HEMATOCRIT [1] of the same compound?
Its HEMATOCRIT is 34.43%.

What about the “LEUKOCYTE COUNT” value [1] of the same compound?
The value was 17.57 x10E3/uL.

What about the LYMPHOCYTE [1] of the same compound?
Its LYMPHOCYTE is 90.33%.

And the “MEAN CORPUSCULAR HEMOGLOBIN” value [1]?
The value was 24.6 pg.

What about the “MEAN CORPUSCULAR HEMOGLOBIN CONCENTRATION” value [1] of the same compound?
Its value is 38.88 G/DL.

And the “MEAN CORPUSCULAR VOLUME” value [1]?
Its value is 63.27 fL.

What about the MONOCYTE [1] of the same compound?
Its MONOCYTE is 0.83%.

What about the NEUTROPHIL [1] of the same compound?
Its NEUTROPHIL is 8.5%.

And the “NUCLEATED RED BLOOD CELLS” value [1]?
Its value is 0 /100WBC.

What about the “PLATELET COUNT” value [1] of the same compound?
Its value is 1298 x10E3/uL.

What about the “ALANINE AMINOTRANSFERASE” value [1] of the same compound?
The value was 47.67 u/L.

And the ALBUMIN [1]?
Its ALBUMIN is 4.18 G/DL.

What about the “ALKALINE PHOSPHATASE” value [1] of the same compound?
The value was 398.5 u/L.

And the “ASPARTATE AMINOTRANSFERASE” value [1]?
The value was 93.17 u/L.

What about the “BLOOD UREA NITROGEN” value [1] of the same compound?
Its value is 16 mg/dL.

And the “CARBON DIOXIDE” value [1]?
The value was 29.17 mmol/L.

And the CHLORIDE [1]?
The CHLORIDE was 98.17 MEQ/L.

What about the CHOLESTEROL [1] of the same compound?
Its CHOLESTEROL is 68.83 mg/dL.

And the CREATININE [1]?
The CREATININE was 0.14 mg/dL.

What about the GLUCOSE [1] of the same compound?
Its GLUCOSE is 151.67 mg/dL.

What about the “LACTATE DEHYDROGENASE” value [1] of the same compound?
The value was 597.5 u/L.

What about the LIPASE [1] of the same compound?
The LIPASE was 9.33 u/L.

What about the PHOSPHORUS [1] of the same compound?
Its PHOSPHORUS is 11.97 mg/dL.

And the “TOTAL BILIRUBIN” value [1]?
Its value is 0.18 mg/dL.

And the “TOTAL PROTEIN” value [1]?
The value was 5.82 G/DL.

And the “URIC ACID” value [1]?
The value was 1.48 mg/dL.

What about the “ABSOLUTE BASOPHIL” value [2] of the same compound?
The value was 0 CELLS/uL.

And the “ABSOLUTE EOSINOPHIL” value [2]?
The value was 31 CELLS/uL.

And the “ABSOLUTE LYMPHOCYTE” value [2]?
Its value is 14327.83 CELLS/uL.

What about the “ABSOLUTE MONOCYTE” value [2] of the same compound?
Its value is 102.83 CELLS/uL.

What about the “ABSOLUTE SEGMENTED NEUTROPHIL” value [2] of the same compound?
The value was 1321.67 CELLS/uL.

And the BASOPHIL [2]?
Its BASOPHIL is 0%.

What about the EOSINOPHIL [2] of the same compound?
Its EOSINOPHIL is 0.17%.

What about the HEMATOCRIT [2] of the same compound?
The HEMATOCRIT was 36.1%.

And the “LEUKOCYTE COUNT” value [2]?
The value was 15.78 x10E3/uL.

What about the LYMPHOCYTE [2] of the same compound?
Its LYMPHOCYTE is 90.5%.

And the “MEAN CORPUSCULAR HEMOGLOBIN” value [2]?
Its value is 24.48 pg.

And the “MEAN CORPUSCULAR HEMOGLOBIN CONCENTRATION” value [2]?
Its value is 39.22 G/DL.

And the “MEAN CORPUSCULAR VOLUME” value [2]?
Its value is 62.4 fL.

What about the MONOCYTE [2] of the same compound?
The MONOCYTE was 0.67%.

What about the NEUTROPHIL [2] of the same compound?
The NEUTROPHIL was 8.67%.

And the “NUCLEATED RED BLOOD CELLS” value [2]?
The value was 0.17 /100WBC.

And the “PLATELET COUNT” value [2]?
The value was 1211.67 x10E3/uL.

And the “ALANINE AMINOTRANSFERASE” value [2]?
The value was 49 u/L.

And the ALBUMIN [2]?
Its ALBUMIN is 4.27 G/DL.

And the “ALKALINE PHOSPHATASE” value [2]?
The value was 356.67 u/L.

And the “ASPARTATE AMINOTRANSFERASE” value [2]?
Its value is 90.17 u/L.

And the “BLOOD UREA NITROGEN” value [2]?
The value was 20.5 mg/dL.

And the “CARBON DIOXIDE” value [2]?
The value was 29.17 mmol/L.

And the CHLORIDE [2]?
The CHLORIDE was 98 MEQ/L.

And the CHOLESTEROL [2]?
Its CHOLESTEROL is 69.83 mg/dL.

What about the CREATININE [2] of the same compound?
Its CREATININE is 0.21 mg/dL.

What about the GLUCOSE [2] of the same compound?
Its GLUCOSE is 149.83 mg/dL.

And the “LACTATE DEHYDROGENASE” value [2]?
Its value is 322 u/L.

What about the LIPASE [2] of the same compound?
The LIPASE was 10 u/L.

And the PHOSPHORUS [2]?
Its PHOSPHORUS is 12 mg/dL.

And the SODIUM [2]?
Its SODIUM is 142.8 MEQ/L.

What about the “TOTAL BILIRUBIN” value [2] of the same compound?
Its value is 0.17 mg/dL.

What about the “TOTAL PROTEIN” value [2] of the same compound?
The value was 6.1 G/DL.

And the “URIC ACID” value [2]?
The value was 1.68 mg/dL.

What about the “ABSOLUTE BASOPHIL” value [3] of the same compound?
The value was 0 CELLS/uL.

What about the “ABSOLUTE EOSINOPHIL” value [3] of the same compound?
The value was 0 CELLS/uL.

What about the “ABSOLUTE LYMPHOCYTE” value [3] of the same compound?
Its value is 12570 CELLS/uL.

And the “ABSOLUTE MONOCYTE” value [3]?
Its value is 145.67 CELLS/uL.

And the “ABSOLUTE SEGMENTED NEUTROPHIL” value [3]?
The value was 851 CELLS/uL.

What about the BASOPHIL [3] of the same compound?
Its BASOPHIL is 0%.

What about the EOSINOPHIL [3] of the same compound?
The EOSINOPHIL was 0%.

What about the HEMATOCRIT [3] of the same compound?
Its HEMATOCRIT is 37.27%.

What about the “LEUKOCYTE COUNT” value [3] of the same compound?
The value was 13.57 x10E3/uL.

And the LYMPHOCYTE [3]?
The LYMPHOCYTE was 92.67%.

And the “MEAN CORPUSCULAR HEMOGLOBIN” value [3]?
Its value is 24.63 pg.

What about the “MEAN CORPUSCULAR HEMOGLOBIN CONCENTRATION” value [3] of the same compound?
The value was 39.1 G/DL.

What about the “MEAN CORPUSCULAR VOLUME” value [3] of the same compound?
Its value is 63 fL.

What about the MONOCYTE [3] of the same compound?
The MONOCYTE was 1%.

And the NEUTROPHIL [3]?
The NEUTROPHIL was 6.33%.

And the “NUCLEATED RED BLOOD CELLS” value [3]?
The value was 0 /100WBC.

And the “PLATELET COUNT” value [3]?
Its value is 1303 x10E3/uL.

What about the “ALANINE AMINOTRANSFERASE” value [3] of the same compound?
The value was 52 u/L.

And the ALBUMIN [3]?
The ALBUMIN was 4.4 G/DL.

And the “ALKALINE PHOSPHATASE” value [3]?
Its value is 415.67 u/L.

And the “ASPARTATE AMINOTRANSFERASE” value [3]?
The value was 84 u/L.

What about the “BLOOD UREA NITROGEN” value [3] of the same compound?
The value was 21.33 mg/dL.

What about the “CARBON DIOXIDE” value [3] of the same compound?
Its value is 26.33 mmol/L.

What about the CHLORIDE [3] of the same compound?
The CHLORIDE was 102 MEQ/L.

And the CHOLESTEROL [3]?
Its CHOLESTEROL is 86.67 mg/dL.

What about the CREATININE [3] of the same compound?
The CREATININE was 0.21 mg/dL.

What about the GLUCOSE [3] of the same compound?
Its GLUCOSE is 155.67 mg/dL.

And the “LACTATE DEHYDROGENASE” value [3]?
Its value is 203.33 u/L.

And the LIPASE [3]?
The LIPASE was 9.67 u/L.

And the PHOSPHORUS [3]?
The PHOSPHORUS was 11.47 mg/dL.

What about the SODIUM [3] of the same compound?
The SODIUM was 144.27 MEQ/L.

And the “TOTAL BILIRUBIN” value [3]?
Its value is 0.23 mg/dL.

And the “TOTAL PROTEIN” value [3]?
The value was 5.97 G/DL.

What about the “URIC ACID” value [3] of the same compound?
The value was 1.83 mg/dL.
